Results published in US8163700B2, “Inhibitors of myelin-associated glycoprotein (MAG) activity for regulating neural growth and regeneration” (Research Foundation of City University of New York, priority 2002, dated 2012).
“Also recorded” adds a separate entry of the source.

Experiments:
[1] = system: cerebellar neurons on CHO cells expressing MAG; test: Neurite outgrowth on MAG-expressing CHO cells in the presence of MAG peptides (FIGS. 4 and 5); format: cell-based; conditions: peptide 15 μM, overnight, FIG. 4
Method: FIG. 4 Inhibition of neurite outgrowth from cerebellar neurons by MAG; peptides Cerebellar neurons were isolated (Example 1) and grown overnight on a monolayer of control-transfected CHO cells (not shown) or CHO cells expressing MAG in the absence (striped bar) or the presence (grey bars) of MAG peptides (15 μM) derived from MAG Ig-like domain 4 or 5. Neurons were stained for GAP-43 antigen and neurite length was measured. Results are shown as number of neurons in each treatment having neurites longer than two times the length of the cell body.
FIG. 5 Inhibition of neurite outgrowth from cerebellar neurons by MAG peptides Cerebellar neurons were isolated (Example 1) and grown for 18 hrs on a monolayer of control-transfected CHO cells (R2) or CHO cells expressing MAG in the absence of a peptide (MAG) or in the presence of a peptide derived from sialoadhesin Ig-like domain 5 (non-MAG “control peptide”) or a MAG peptide (M433 or M462 at 20 μM) derived from MAG Ig-like domain 5. Neurons were stained for GAP-43 antigen and neurite length was measured and the average length was calculated for 180-200 neurons (+/−SEM).
Confluent monolayers of control, MAG-, truncated MAG- or chimeric MAG-Sn-expressing CHO cells were established over a 24-hour (h) period in individual chambers of an 8-well tissue culture slide (Lab-Tek). Co-cultures were established as described previously (Doherty et al., Nature, 343, pp. 464-66 (1990); Neuron, 5, pp. 209-19 (1990); Mukhopadhyay et al., Neuron, 13, pp. 757-67 (1994)) by adding approximately 5000 cerebellar neurons to the CHO monolayers. Culture medium was SATO containing 2% FCS. After periods of time as indicated, the co-cultures were fixed for 30 minutes (min) with 4% paraformaldehyde and permeabilized with ice-cold methanol for 2 min. The cells were then blocked for 30 min with DMEM containing 10% FCS and incubated for 2 h with a rabbit polyclonal antibody against the neuronal marker GAP43 (1:4000). Cells were washed three times with PBS-BSA (2%) and then incubated for 30 min at room temperature with a biotinylated donkey anti-rabbit Ig (1:300, Amersham), washed three times, and incubated with streptavidin-conjugated Texas Red (1:300, Amersham) for 30 min. After three more washes, the slides were mounted in Permfluor (Baxter) and viewed with a Zeiss fluorescent microscope. The length of the longest neurite for each GAP43-positive neuron was determined using the Biological Detection System image analysis program (Pittsburgh).
Peptides corresponding to amino acid residues […] of MAG (MAG(343-371)), amino acid residues 363-397 (MAG(363-397)), amino acid residues 394-428 (MAG(394-428)), amino acid residues 422-451 (MAG(422-451)), amino acid residues 442-471 (MAG(442-471)), and amino acid residues 461-498 (MAG(461-498)) were synthesized. Peptides were obtained from SynPep Corp. (Dublin, Calif.). MAG(343-371), MAG(363-397) and MAG(394-428) correspond to amino acid residues from the Ig4 domain of MAG. MAG(422-451), MAG(442-471) and MAG(461-498) corresponds to amino acid residues from the Ig5 domain of MAG. […] Results are shown in FIG. 4 (and are represented as number of neurons with processes longer than 2-times the cell diameter). […] Results are shown in FIG. 5 (and are represented as average neurite length for 180-200 neurons).

cerebellar neurons = test: Neurite outgrowth of cerebellar neurons on CHO cell monolayers expressing MAG or truncated, deleted or chimeric MAG derivatives (FIG. 1); format: cell-based; conditions: cerebellar neurons grown overnight on CHO cells expressing the construct, versus control-transfected CHO cells; GAP-43 staining
Method: FIG. 1 Inhibition of neurite outgrowth from cerebellar neurons by truncated MAG or chimeric MAG Cerebellar neurons were isolated (Example 1) and grown overnight on a monolayer of control-transfected CHO cells (clear bar) or a monolayer of CHO cells expressing wild-type MAG or truncated, deleted or chimeric MAG derivatives (grey bars). (See Example 2). Neurons were stained for GAP-43 antigen and neurite length was measured and the average length was calculated for 180-200 neurons (+/−SEM).
Cerebellar neurons were isolated essentially as described in Doherty et al., Nature, 343, pp. 464-66 (1990); Neuron, 5, pp. 209-19 (1990); and Kleitman et al., Culturing Nerve Cells, pp. 337-78, MIT Press, Cambridge, Mass./London, England (G. Banker and K. Goslin, Eds.) (1991). Briefly, for animals up to nine days of age, the cerebellum was removed from two animals, and placed in 5 ml of 0.025% trypsin in PBS, triturated, and incubated for a further 10 minutes (min) at 37° C. […]
Confluent monolayers of control, MAG-, truncated MAG- or chimeric MAG-Sn-expressing CHO cells were established over a 24-hour (h) period in individual chambers of an 8-well tissue culture slide (Lab-Tek). […] The length of the longest neurite for each GAP43-positive neuron was determined using the Biological Detection System image analysis program (Pittsburgh).

For “MAG(461-498): 38 amino acid peptide of MAG residues 461-498 (SEQ ID NO: 23) (VYSERSGLLLTSILTLRGQAQAPPRVICTSRNLYGTQS)”, the “effect on the ability of MAG-expressing cells to inhibit neurite outgrowth” value [1] was “no apparent effect on inhibition of neurite outgrowth by MAG; also recorded: does not reduce the ability of wild-type MAG to inhibit neurite outgrowth”.

With “MAG(422-451): peptide of MAG amino acid residues 422-451 (SEQ ID NO: 15) (AAARDTVQCLCVVKSNPEPSVAFELPSRNV)” the “effect on the ability of MAG-expressing cells to inhibit neurite outgrowth” value [1] was “strongly attenuated inhibition by MAG” and the “neurite length relative to neurites extended without peptide or with MAG Igd4 peptides” value ([1]; neurons on MAG-expressing cells) was “at least twice as long”.

B1: MAG: full-length MAG containing all five Ig-like domains, expressed on CHO cells (protein, UniProt P20917 1-627, looked up)
chain: MIFLATLPLFWIMISASRGGHWGAWMPSTISAFEGTCVSIPCRFDFPDELRPAVVHGVWYFNSPYPKNYPPVVFKSRTQVVHESFQGRSRLLGDLGLRNCTLLLSTLSPELGGKYYFRGDLGGYNQYTFSEHSVLDIVNTPNIVVPPEVVAGTEVEVSCMVPDNCPELRPELSWLGHEGLGEPTVLGRLREDEGTWVQVSLLHFVPTREANGHRLGCQAAFPNTTLQFEGYASLDVKYPPVIVEMNSSVEAIEGSHVSLLCGADSNPPPLLTWMRDGMVLREAVAKSLYLDLEEVTPGEDGVYACLAENAYGQDNRTVELSVMYAPWKPTVNGTVVAVEGETVSILCSTQSNPDPILTIFKEKQILATVIYESQLQLELPAVTPEDDGEYWCVAENQYGQRATAFNLSVEFAPIILLESHCAAARDTVQCLCVVKSNPEPSVAFELPSRNVTVNETEREFVYSERSGLLLTSILTIRGQAQAPPRVICTSRNLYGTQSLELPFQGAHRLMWAKIGPVGAVVAFAILIAIVCYITQTRRKKNVTESSSFSGGDNPHVLYSPEFRISGAPDKYESEKQRLGSERRLLGLRGESPELDLSYSHSDLGKRPTKDSYTLTEELAEYAEIRVK
modifications: full-length
notes: full-length MAG containing all five Ig-like domains, expressed on CHO cells
With B1 the “inhibition of neurite outgrowth by the expressed MAG construct” value (cerebellar neurons) was “capable of inhibiting neurite outgrowth”.
